# Assay results: patent US20250296937A1, “CYCLIC BISBENZYL TETRAHYDROISOQUINOLINE COMPOUND, AND PREPARATION METHOD THEREFOR AND USE THEREOF” (Shanghai Institute of Materia Medica, Chinesse Academy of …, priority 2021, published 2025)
# “Also recorded” adds a separate entry of the source.
# Experiments:
# [1] = tested on: Raw 264.7 cells; experiment: Cell viability in LPS-induced inflammation model of Raw 264.7 cells (CCK-8); format: cell-based; details: 1 μg/ml LPS, 1 μM compound, 16 hours
# Experimental: In this example, the effect of the compounds of the present invention on the inflammation level of the LPS-induced inflammation model of Raw 264.7 cells was analyzed by cell viability in combination with inflammatory factors; cell viability was analyzed by CCK-8 assay; and mRNA expression levels of inflammation-related indicators were detected by a real-time quantitative PCR (Q-PCR) method. Raw 264.7 cells were purchased from ATCC; CCK-8 kit was purchased from Meilunbio, item no. MA0218-3; LPS was purchased from Sigma, item no. L2630.
# (§1) Experimental methods: first, 8000 cells/well Raw 264.7 cells were placed in 96-well plates and incubated overnight. On the second day, 0.1% DMSO was added to the control cells, 1 μg/ml LPS as well as 0.1% DMSO was added to the model group, 1 μg/ml LPS as well as 1 μM of the compounds (oxyacanthine hydrochloride (oxy), 1, 2, tetrandrine (tet), 3, 4, 6, 58) was added to the treatment group, and the 96-well plates were sterilized and incubated in a constant temperature incubator for 16 hours. Finally, the viability of the cells was detected using the CCK-8 kit.
# [2] = tested on: carbon tetrachloride-induced acute liver fibrosis; experiment: Carbon tetrachloride-induced acute liver fibrosis in mice; format: in vivo, C57BL/6 mice; details: for liver fibrosis indicators (Collagen1, α-SMA) by WB assay: 30 mg/kg orally once a day for 6 days, CCl4 0.6 ml/kg i.p. D1, D3, D5; for effect on CCl4-induced acute liver fibrosis in mice: oral administration, 30 mg/kg
# Experimental: In this example, the effect of the compounds of the present invention on the carbon tetrachloride-induced acute liver fibrosis model was analyzed by tissue observation, fibrosis indicators, HE and Sirius red staining; the injury of mice was determined by body weight testing and tissue bright-field photographing; the protein expression levels of fibrosis-related indicators were detected by WesternBlot assay; and the fibrosis progression was analyzed by HE and Sirius red staining. C57BL/6 mice were purchased from SLAC; CCl4 was purchased from Sinopharm Chemical Reagent Co, Ltd, item no. 10006464; olive oil was purchased from Sinopharm, item no. 69018028; primary antibody: Collagen was purchased from ARG21965, item no. arigobio; α-smooth muscle actin was purchased from CST, item no. mAb #19245; VIMENTN was purchased from CST, item no. mAb #5741; GAPDH was purchased from Yeasen, item no. mAb #30201ES20.
# Solution preparation: CCl4 was diluted with olive oil (1:9, vol:vol) and the compounds were configured with 85% saline+5% DMSO+5% HS-15+5% PEG400 as solvents toa concentration of 3 mg/ml.
# Construction of fibrosis model mice: […] C57 mice were randomly divided into […] after 1 week of adaptive feeding: blank group, model group, and 2 treatment groups; with 6 experimental animals in the blank group and 8 experimental animals in each of the remaining 3 groups. Except for the blank group, the remaining three groups were injected intraperitoneally with CCl4 (0.6 ml/kg) in D1, D3, and D5, respectively, and the blank group was injected intraperitoneally with olive oil at the same time. At the same time of modeling, mice in the treatment group were continuously administered by gavage for 6 days, once a day, 2 h after the injection of CC14, and the treatment group was administered orally 30 mg/kg of Compound 2 or Compound 4; mice in the blank group and the model group were given an equal amount of saline by intraperitoneal injection, and the mice were euthanized 24 h after the last administration of CCl4 for test. A portion of the liver tissue was cut to appropriate size and placed in 4% PFA, −80° C. refrigerator for subsequent detection of pathological changes in tissue sample slices, and WB assay, respectively.
# Detection methods: 1. After autopsy, liver in situ photos were taken; 2. Liver tissue was retained and lysed using RIPA to extract proteins for WB detection; 3. HE staining as well as Sirius red detection were performed when liver tissue sections were fixed.
# [3] = tested on: ALM12 hepatocytes; experiment: Anti H2O2-induced necrotic injury assay in ALM12 hepatocytes (microscopy, CCK-8); format: cell-based; details: 2 mM H2O2, 1 μM compound, 3 hours, microscope and CCK-8
# Experimental: In this example, the effect of the compounds of the present invention on the level of necrotic injury induced by H2O2 in ALM12 hepatocytes was analyzed by microscopic morphological observations, cell viability in combination with cell death-associated molecules. Cell viability was analyzed by CCK-8 assay. ALM12 cells were cultured in 1640 medium (gibco, c11995500BT)+10% FBS (gibco, 10099141C) in a constant temperature incubator at 37° C., 5% CO2; the CCK-8 kit was purchased from Meilunbio, item no. MA0218-3; H2O2 was purchased from Sinopharm Chemical Reagent Co. item no. 10011208.
# Experimental methods: first, 8000 cells/well ALM12 cells were placed in 96-well plates and incubated overnight. On the second day, 0.1% DMSO was added to the control cells, 2 mM H2O2 as well as 0.1% DMSO was added to the model group, 2 mM H2O2 as well as 1 μM of the compounds (oxy, 1, 2, tet, 3, 4, 6, 58) was added to the treatment group, and the 96-well plates were sterilized and incubated in a constant temperature incubator for 3 hours. Finally, cell injury and growth were observed using a microscope; the viability of the cells was detected by CCK-8 kit.
# [4] = tested on: inflammatory factor mRNA in Raw 264.7 cells; experiment: mRNA levels of inflammatory indicators in TNF-α-induced inflammation model of Raw264.7 cells (Q-PCR); format: cell-based; details: 10 ng/ml TNF-α, 1 μM compound, 16 hours
# Experimental: In this embodiment, the effect of compounds on TNF-α-induced inflammation levels in Raw 264.7 cells was analyzed by cell viability combined with inflammatory factor expression levels; cell viability was analyzed by CCK-8 assay; and mRNA expression levels of inflammation-associated indicators were detected by real-time quantitative PCR (Q-PCR) method. Raw 264.7 cells were purchased from ATCC, CCK-8 kit was purchased from Meilunbio, item number MA0218-3, TNF-α was purchased from Merck, item no. GF314.
# as §1, with “5*10^4” for “8000”, “12-well” for “96-well”, “10 ng/ml TNF-α” for “1 μg/ml LPS”, “Cellular mRNA was extracted by lysis using Trizol (Yisheng, 10606ES60) and detected by real-time quantitative PCR after reverse transcription,” for “Finally,”, “primers are” for “viability of”, “same as in Table 2.” for “cells was detected using the CCK-8 kit.”
SMILES,cell viability in LPS-induced inflammation model [1],"liver fibrosis indicators (Collagen1, α-SMA) by WB assay [2]",effect on CCl4-induced acute liver fibrosis in mice [2],alleviation of H2O2-induced ALM12 hepatocyte injury [3],inhibition of inflammatory factors (mRNA) in TNF-α-induced inflammation model [4]
COc1cc2c3cc1Oc1c(OC)c(OC)cc4c1[C@H](Cc1ccc(cc1)Oc1cc(ccc1C(N)=O)C[C@H]3N(C)CC2)N(C)CC4 [Compound 4],did not affect cell viability,down-regulated,alleviated; also recorded: mitigative effect,significantly alleviated,significantly inhibited inflammatory factors; also recorded: significant inhibition
CCCCNC(=O)Oc1ccc2cc1Oc1ccc(cc1)C[C@H]1c3c(cc(OC)c(OC)c3Oc3cc4c(cc3OC)CCN(C)[C@@H]4C2)CCN1C [Compound 2],did not affect cell viability,down-regulated,alleviated; also recorded: mitigative effect,significantly alleviated,significantly inhibited inflammatory factors; also recorded: significant inhibition
